Data taken from PubChem BioAssay AID489032 (Sanford-Burnham Center for Chemical Genomics, 2010).
Active and inactive are the calls of the source. The rule behind the calls is not given here.

What follows are compounds tested on UPR adaptive arm reporter cells, luciferase luminescence (assay: activators of adaptive UPR signalling, dose response, cell-based, luciferase luminescence (AID 489032)).

SMILES | EC50
Cn1c2ccccc2c2cc(/C=N/NC(=O)c3cc(O)ccc3O)ccc21 | 38.1 µM (inactive)
O=C(Nc1ccc2oc(-c3ccccc3Cl)nc2c1)c1cncc(Br)c1 | > 80 µM (inactive)
CCc1ccc2[nH]c3nc(SCC(=O)NNC(=O)c4ccc(C(C)(C)C)cc4)nnc3c2c1 | 32.3 µM (inactive)
Cc1ccc(/C=C/C(=O)c2cc(Br)ccc2OC(=O)c2ccco2)cc1 | 37.9 µM (inactive)
COc1ccc2nc(NC(=O)c3cccc(-c4cc5ccccc5oc4=O)c3)sc2c1 | > 80 µM (inactive)
C/C(CCC12CC3CC(CC(C3)C1)C2)=N\NC(N)=S | 27.3 µM (inactive)
Cc1ccc(NC(=O)c2c(C)nc3sc(C(=O)NC4CCCC4)c(N)c3c2-c2ccco2)c(C)c1 | 48.4 µM (inactive)
C=C(C)[C@@]12OC3(c4ccccc4)O[C@@H]1C1[C@@H]4O[C@]4(CO)[C@@H](O)[C@]4(O)C(=O)C(C)=C[C@H]4[C@@]1(O3)[C@H](C)[C@H]2OC(=O)/C=C/C=C/c1ccccc1 (some centres undefined) | 39.1 µM (inactive)
Nc1cccc(-c2nc3cc(S(=O)(=O)c4ccc5oc(-c6cccc(N)c6)nc5c4)ccc3o2)c1 | 24.1 µM (inactive)
COc1ccc(OC)c(Nc2nc(NCc3ccco3)nc(N)c2[N+](=O)[O-])c1 | > 80 µM (inactive)
CCn1cc(C(=O)NC(=S)Nc2sc3c(c2C(=O)OC)CCCCCC3)cn1 | > 80 µM (inactive)
CC1CCN(Cc2c(C(=O)N/N=C/c3ccc(C(C)C)cc3)nnn2-c2nonc2N)CC1 | > 80 µM (inactive)
COc1cccc(-c2sc3ccccc3c2-c2ccc(OCCN(C)C)cc2)c1 | > 80 µM (inactive)
Cc1cc(C)c2c(c1)/C(=N/Nc1ccc(S(N)(=O)=O)cc1[N+](=O)[O-])CCC2 | > 80 µM (inactive)
Oc1ccc(/C=N/Nc2cc(N3CCOCC3)nc(N3CCOCC3)n2)cc1O | > 80 µM (inactive)
O=[N+]([O-])c1cccc(/C=C/c2ccc3cccc(O)c3n2)c1 | 28.7 µM (inactive)
O=c1cc(CN2CCN(c3ccc(F)cc3)CC2)c2cc3c(cc2o1)CCCC3 | 17.6 µM
Cc1ccc(C(=O)Nc2cc(S(=O)(=O)N3CCOCC3)ccc2N2CCCC2)cc1 | 63.2 µM (inactive)
CCCCCCCC(=O)Nc1ccc(C(=O)N/N=C/c2cccc([N+](=O)[O-])c2)cc1 | 18.3 µM
Cn1cc(/C=C(\C#N)C(=O)Nc2cccc([N+](=O)[O-])c2)c2ccccc21 | > 80 µM (inactive)
CCOC(=O)C1=C(C)N=C2c3ccccc3C(=O)C2C1c1ccc(C)cc1 (centres undefined) | > 80 µM (inactive)
CCOc1cc(/C=N/N=C(\N)c2nonc2N)cc(Br)c1OCc1cccc2ccccc12 | > 80 µM (inactive)
O=C(Nc1ccc(O)c2c(=O)cc(-c3cccc(Cl)c3)oc12)c1cccc(Cl)c1 | 20.9 µM (inactive)

SMILES | EC50
O=C(N/N=C/c1ccccc1Cl)c1[nH]c2ccc(Br)cc2c1-c1ccccc1 | 32.9 µM (inactive)
CC(C)CN=C(NS(=O)(=O)c1ccccc1)C(Cl)(Cl)Cl | > 80 µM (inactive)
Cc1ccc(-n2c(O)c(/C=N/c3ncc(Br)cc3Br)c(=O)[nH]c2=O)cc1 | 26.8 µM (inactive)
Cc1ccc2c(=O)[nH]c(Nc3nc(C)cc(-c4ccccc4)n3)nc2c1 | > 80 µM (inactive)
N#C/C(=C\c1ccc(N2CCCC2)c([N+](=O)[O-])c1)c1nc2ccccc2[nH]1 | > 80 µM (inactive)
COc1ccc(Br)cc1-c1nc2c(c(=O)[nH]c(=O)n2Cc2ccccc2)n1C | 63.1 µM (inactive)
Cc1[nH]c2ccccc2c1/C=C/c1nc2ccccc2c(=O)n1-c1ccc([N+](=O)[O-])cc1 | > 80 µM (inactive)
Cc1cc(C)c(NC(=O)CSc2nc(COc3ccccc3)nc3ccccc23)c(C)c1 | > 80 µM (inactive)
CCOc1cc(/C=C2/NC(=S)NC2=O)ccc1OCc1ccc([N+](=O)[O-])cc1 | > 80 µM (inactive)
COc1cc(OC)cc(C(=O)Nc2ccc3nc4n(c(=O)c3c2)CCCCC4)c1 | 31.9 µM (inactive)
Cc1cc(C)cc(NC(=O)/C(C#N)=C/c2cn(CC(=O)NCc3ccco3)c3ccccc23)c1 | 9.17 µM
O=C(/C=C/c1ccco1)NC(=S)Nc1ccc(O)c(-c2nc3ccccc3s2)c1 | 10.4 µM
COC(=O)C1C(O)=C(C=Nc2cccc3ccccc23)C(=O)CC1(C)C (centres undefined) | 30.1 µM (inactive)
COC(=O)c1sccc1NC(=O)c1cc(-c2cccc(C)c2)nc2ccccc12 | > 80 µM (inactive)
CCOc1ccc(-n2nc3ccc(NC(=O)c4ccc5c(c4)OCCO5)cc3n2)cc1 | > 80 µM (inactive)
N#CCC(=O)N/N=C/c1cn(Cc2ccc3ccccc3c2)c2ccccc12 | 71 µM (inactive)
Nc1nc(-c2cc(O)ccc2[N+](=O)[O-])cc(-c2ccccc2)c1[N+](=O)[O-] | 8.27 µM
Cc1cc(SCC(=O)c2ccc(O)c(O)c2)n2nc(C)c(-c3ccccc3)c2n1 | > 80 µM (inactive)
Cc1ccc(-c2nnc(-c3ccc(NC(=O)c4cccs4)cc3)o2)cc1 | 15.9 µM
CCOc1ccccc1NC(=O)Cn1c(=O)n(-c2ccccc2)c(=O)c2oc3ccccc3c21 | > 80 µM (inactive)
Cc1ccc(NC(=O)CSc2nc3ccccc3c3nc4ccccc4n23)cc1 | 7.77 µM
CCOC(=O)c1[nH]c2ccc(Cl)cc2c1NC(=O)/C=C/c1ccc2c(c1)OCO2 | 74.2 µM (inactive)
CC1(C)C=Cc2c(c3c(c4c(=O)c(-c5ccc(O)cc5)coc24)OC(C)(C)CC3)O1 | > 80 µM (inactive)

SMILES | EC50
c1ccc(N=Nc2ccc3cccccc2-3)cc1 | > 80 µM (inactive)
NS(=O)(=O)c1ccc(NC(=O)COC(=O)c2cn(-c3ccccc3)nc2-c2ccc(F)cc2)cc1 | > 80 µM (inactive)
Cc1ccc(Nc2nc(-c3c(C)nc4ccccn34)cs2)cc1 | > 80 µM (inactive)
CCC(=O)Nc1ccc(NC(=O)CSc2nc3cc4c(cc3cc2C)CCC4)cc1 | > 80 µM (inactive)
CC(NCC(O)COCCC12CC3CC(CC(C3)C1)C2)c1ccccc1 (centres undefined) | > 80 µM (inactive)
O=C(/C=C/c1ccccc1)c1ccccc1O | > 80 µM (inactive)
Cc1ccc(NS(=O)(=O)c2cc([N+](=O)[O-])ccc2N/N=C/c2sc(N3CCOCC3)nc2-c2ccccc2)c(C)c1 | > 80 µM (inactive)
CCOC(=O)C1=C(C)n2c(s/c(=C/c3cccc([N+](=O)[O-])c3)c2=O)=NC1c1ccc(O)c(OC)c1 (centres undefined) | > 80 µM (inactive)
O=C1Nc2ccccc2/C1=C/c1ccc([N+](=O)[O-])cc1 | > 80 µM (inactive)
COc1ccc(-c2coc3cc4oc(=O)cc(-c5ccccc5)c4cc23)cc1F | 43.3 µM (inactive)
Clc1ccc2c(c1)C(N1CCNCC1)Cc1ccccc1S2 (centres undefined) | > 80 µM (inactive)
O=C1c2ccccc2C(=O)N1/N=C/c1ccc(O)c(O)c1 | > 80 µM (inactive)
CC1=C(CC/C(C)=N/NC(N)=S)C(C)(C)CCC1 | 29.3 µM (inactive)
CCOc1ccccc1CNC(=O)C1CCN(c2nnc(C)c3c(C)n(-c4ccc(C)cc4)nc23)CC1 | > 80 µM (inactive)
CCCc1nc2ccccc2c(=O)n1/N=C/c1ccc(O)c(O)c1 | > 80 µM (inactive)
Cc1ccccc1NC(=O)c1ccc(N/N=C/c2ccccc2O)c([N+](=O)[O-])c1 | > 80 µM (inactive)
Cn1ncc(N=Cc2c(O)ccc3ccccc23)c1C(=O)Nc1cccc(Cl)c1 | > 80 µM (inactive)
COc1ccc([N+](=O)[O-])cc1COc1ccc2c(-c3ccccc3)cc(=O)oc2c1 | > 80 µM (inactive)
Cc1ccc(C2=Nc3ccc(Br)cc3C(c3ccncc3)=NN2)cc1 | 24 µM (inactive)
O=C(c1ccc2c(c1)[nH]c(=S)n1c3ccccc3nc21)N1CCN(c2cccc(Cl)c2)CC1 | > 80 µM (inactive)
Oc1cc(-c2ccc(N3CCCCC3)nc2)cc2cccnc12 | > 80 µM (inactive)
C=CCOc1ccc2cccc(/C=N/NC(=O)c3cc4cc([N+](=O)[O-])ccc4s3)c2c1 | 43.5 µM (inactive)
COc1ccc(Cn2c(SCc3ccccc3C)nc3cc(OC)c(OC)cc3c2=N)cc1 | 15.5 µM

SMILES | EC50
CC(=O)c1cccc(N=Cc2c(O)c3ccccc3oc2=O)c1 | > 80 µM (inactive)
O=C(N/N=C/C(Br)=C\c1ccccc1)c1n[nH]c2c1CCC2 | > 80 µM (inactive)
CN(C)c1ccc(/C=C/[N+](=O)[O-])cc1 | > 80 µM (inactive)
N#C/C(=C/c1ccc(N2CCCC2)c([N+](=O)[O-])c1)c1nc2ccccc2[nH]1 | > 80 µM (inactive)
O=C(Nc1ccc(Oc2ccc(NC(=O)Nc3ccccc3Cl)cc2)cc1)Nc1ccccc1Cl | > 80 µM (inactive)
COc1ccc(-n2c(C)cc(C(=O)CCl)c2C)cc1 | > 80 µM (inactive)
CC(C)c1cccc(-c2ccc3c(c2)S(=O)(=O)c2cccc(C(=O)NCc4ccccc4Cl)c2C3=O)c1 | 38.4 µM (inactive)
CCOc1cc(/C=N/NC(=O)Cn2nc([N+](=O)[O-])cc2C)cc(Br)c1OCc1ccccc1C | > 80 µM (inactive)
CCN(CC)c1ccc(C(=O)OCC(=O)Nc2cc3oc4ccccc4c3cc2OC)cc1 | 25.8 µM (inactive)
CC1CCN(Cc2c(C(=O)N/N=C/c3ccc(C(C)(C)C)cc3)nnn2-c2nonc2N)CC1 | > 80 µM (inactive)
COc1ccc(C2NCCc3c2[nH]c2ccccc32)cc1COc1ccc(F)cc1 (centres undefined) | > 80 µM (inactive)
CCCCN1C(=O)C(=O)c2cc(Cl)ccc21 | 52.4 µM (inactive)
CC1=C(/C=C/C(C)=C/C=C/C(C)=C/C(=O)Nc2ccc(O)cc2)C(C)(C)CCC1 | > 80 µM (inactive)
O=C(CC1C[C@H](C(=O)N2CCCCC2)[C@@]2(CCc3ccccc3)c3[nH]c4ccccc4c3CCN2C1=O)NCCC1=CCCCC1 (some centres undefined) | 43 µM (inactive)
CCc1cc2c(C)ccc(C)c2nc1SCC(=O)Nc1c[nH]c(=O)[nH]c1=O | > 80 µM (inactive)
CCCCNc1c(-c2ccc(-c3ccc(C(C)=O)cc3)c(OC)c2)nc2cc(C)ccn12 | > 80 µM (inactive)
Cc1ccc(NC(=O)c2cc(S(=O)(=O)N(C)C)ccc2N2CCCC2)cc1F | 37.6 µM (inactive)
O=C(NC1CCCCC1)c1cccc2c1C(=O)c1ccc(-c3ccc(OC(F)(F)F)cc3)cc1S2(=O)=O | > 80 µM (inactive)
Cc1cccc2cc(C(c3nnnn3Cc3ccccc3)N3CCCc4ccccc43)c(=O)[nH]c12 (centres undefined) | 32.5 µM (inactive)
Cc1cc(NC(=O)c2cncc(Br)c2)ccc1NC(=O)c1cc2ccccc2o1 | > 80 µM (inactive)
